Data on one compound can be found in patent US8741965B2, “Method of administering a pheromone composition to an animal to modify the animals behavior over an extended period of time” (Sergeant's Pet Care Products, Inc., priority 2011, dated 2014).

“Also recorded” adds a separate entry of the source.

Experiment [1] concerns cat. The experiment in a line: Collar containing rabbit pheromone worn by cats (Example 7). In kind it is in vivo. The settings on record: collar worn by a cat. The source says: A collar containing 2-methylbut-2-enal can be prepared in accordance with Examples 1 or 2.
Experiment [2] relates to nervous dogs (dogs 5-8). Nature of the experiment: Example 11 Study 4: room diffusers over 24 hours. The class given is in vivo, dog. The settings on record: for heart rate and surface temperature of individual dogs: compared with Placebo, FIGS. 17A and 17B. The text has this: Eight dogs were obtained from a local contract research facility and assessment was made as to general dog health, behavior and heart rate. The dogs were estimated to be 2 to 7 years of age, mixed breed, and weighed averagely 8.1±0.18 kg at the start of the studies. […] Upon arrival each dog was bathed using shampoo containing flea and tick medicine (Hartz Mountain Corp. Secaucus, N.J. USA), and their body hair was shaved. Each dog was kept in a single room, which had 100% fresh air intake and exhaust. The dogs were fed twice (am and pm) per day ad libitum. At that time, the room was cleaned and the dogs obtained extra exercise. Water was available ad libitum.
Dog behavior was captured on video media at a sampling rate of 30 frames per second. Video records were reviewed in real time (with tape playing 30 frames per second). A scan sampling method was used to record dog behaviors each minute or each 5 minutes depending on the particular study. If the sample period was 120 minutes with four periods (0-30=0, 30-60=30, 60-90=60, and 90-120-90 min), then a scan sample was recorded each 1 minute. If the sample period was 24 hours, then the scan sample was collected each 5 minutes and summarized each hour. For example, pacing is when a dog walks in a stereotyped manner for minutes to hours. Because it was not easy to distinguish walking from pacing, the behaviors were merged. In addition, the video records could not clearly distinguish lying down and awake versus lying down and sleeping, therefore there was no separate description for these two behaviors.
Heart rate during the studies was measured by the use of a non-invasive telemetry system (Data Science International, St. Paul, Minn., USA). Leads were placed in contact with the dogs' shaved skin. Sensors measured heart rate, surface temperature and general activity. Data were transmitted to a receiving computer in another room. The sampling rate varied with the study, but was 5 seconds for the first two hours after treatments and then each 1 minute for 24 hours (depending on the particular study). For surface temperature measurements of the dog subjects, a thermistor was located against the skin of each dog. It recorded the surface temperature to the neared 0.1° C. on the same interval as the heart rate data.
Behavior and physiological data (heart rate and surface temperature) were analyzed by least squares analysis of variance using SAS (2011) software and the general linear models procedures. The experimental design of each study was a specialized randomized complete block in a Latin square design with data collected as a split plot over time. Dogs represented the blocks. Each dog received each treatment randomly in successive days or weeks. The statistical model included effects of treatment (TRT), dog, dog by treatment (TRT*DOG; error term used to assess treatment and dog effects), time (HR), treatment by time (TRT*HR), and residual error (SE; used to test remaining effects). Behavior data were collected and analyzed as counts per time period, but for clarity of presentation, the data are reported as percentage of time dogs engaged in each behavior.
In Study 4, putative pheromones were examined as room diffusers. Room diffusers were obtained and different liquid odors were applied over a 24 hour period. In contrast to Studies 1, 2, and 3, heart rates and behavior data were obtained over 24 hours (rather than just 2 hours after treatment application as in the other studies) and a baseline day was included in the dataset. Similar to Studies 1, 2, and 3, each dog experienced each treatment on different days in random order. The following treatment groups were evaluated: Baseline, Placebo Formula H Pheromone (SERG), DAP room diffuser (DAPRD; as available commercially) and the Rabbit Pheromone in diffuser form prepared in accordance with Example 4 (RPRD, 1 μg/mL). […]

Consider `C/C=C(\C)C=O` [RP, 2-methylbut-2-enal], for which, in experiment [1], the “change in cat behavior” value is given as “significant change in behavior towards a calmer demeanor”. In addition, the “TEMP (surface temperature)” value in experiment [2] (after room diffuser treatment, dogs 5-8, Placebo 30.9) was found to be 33.8. In addition, the “HR (overall heart rate)” value in experiment [2] (after room diffuser treatment, dogs 5-8, Placebo 79.6) came out at 108.4. Also, in experiment [2] (room diffuser, 24 hours), the Defecate was 0.18% of time, the Drink is listed as 0.18% of time, the Eat is 0.26% of time and the Lick self is 0.09% of time. In experiment [2] (room diffuser, 24 hours), the “Lying down” value is 87.0% of time, the Pace- is recorded as 5.67% of time, the Sitting is 5.00% of time and the Standing is listed as 1.42% of time. In experiment [2] (room diffuser, 24 hours), the Urinate was 0.26% of time. Further, the “drinking behavior of individual dogs” value in experiment [2] (room diffuser, FIG. 16) is “dog 7 showed increased drinking”. For the same compound, the “heart rate and surface temperature of individual dogs” value in experiment [2] (room diffuser) is listed as “increased the surface temperature of dog 7 compared to placebo”. For the same compound, in experiment [2] (room diffuser, listed as rabbit pheromone), the “heart rate and surface temperature of individual dogs” value is “Dog 5 had elevated HR and surface temperature; also recorded: Dog 6 had increased heart rate and decreased surface temperature”. For the same compound, the “heart rate of dog 5” value in experiment [2] (room diffuser, increased to) is recorded as “about 200 bpm”.
